Reference: patent publication US20160015700A1, “4-CYANO-N-(2-(4,4-DIMETHYLCYCLOHEX-1-EN-1-YL)-6-(2,2,6,6-TETRAMETHYLTETRAHYDRO-2H-PYRAN-4-YL)PYRIDIN-3-YL)-1H-IMIDAZOLE-2-CARBOXAMIDE FOR THE TREATMENT OF HODGKIN'S LYMPHOMA” (JANSSEN PHARMACEUTICA NV, priority 2013, published 2016)

Test system: classical Hodgkin's Lymphoma patient
Experiment: Case study: treatment of a classical Hodgkin's Lymphoma patient, response by CT/MRI scan and PET scan (Cheson criteria)
Format: in vivo, human
Settings: 150 mg orally 1 time a day, Cheson 2007 criteria
Protocol: A classical Hodgkin's Lymphoma patient, diagnosed with Stage II in Hodgkin Lymphoma in January 2006, and previously treated with radiotherapy and three different regimens of chemotherapy, including an autologous stem cell transplantation was treated with 150 mg of the compound of formula (I), administered orally 1 time a day. In addition to the compound of formula (I), the patient was taking the following medications and dosages: (a) DEKRISTOL (cholecalciferol), 20000 I.U. QOD for vitamin deficiency, (b) methylphenidate hydrochloride, 20 mg DAILY for fatigue, (c) ibuprofen, 600 mg PRN for back pain, and (d) VALORON N (tilidine) 50 IN 20 DROPS PRN for back pain.
Response to treatment was evaluated by tumor assessments using CT/MRI scan and PET scan, resulting in an individual response for each technique. In addition, an overall response evaluation was completed, taking into account both scan results. Response evaluations were completed according to the criteria as set forth in CHESON, B. D., et al., J. Clin. Oncology, 2007, pp579-586, Vol. 25(5).

Structure (SMILES): CC1(C)CC=C(c2nc(C3CC(C)(C)OC(C)(C)C3)ccc2NC(=O)c2nc(C#N)c[nH]2)CC1 [compound of formula (I), 4-cyano-N-(2-(4,4-dimethylcyclohex-1-en-1-yl)-6-(2,2,6,6-tetramethyltetrahydro-2H-pyran-4-yl)pyridin-3-yl)-1H-imidazole-2-carboxamide]
- response status at later follow-up (as of 13 Mar. 2013): still in complete response
- overall response to treatment (evaluated after 121 days of treatment, previously treated classical Hodgkin's Lymphoma patient): complete response to treatment
